Source: US20030036531A1, “Use of lysophospholipids to inhibit mammalian phospholipase D” (Wisconsin Alumni Research Foundation, priority 2001, published 2003)
Blank lines part the entries; values can stand above or below the molecule they belong to.

What was measured:
[1] = biological target: T1, partially purified PLD from rat brain membrane (Rattus norvegicus, UniProt P70496); assay: Measurement of PLD activity (partially purified rat brain PLD, 14C-PC substrate, TLC); format: biochemical; settings: for PLD activity, % of the control: 10 μM compound, standard mixture with 4.8 μM PIP2, 100 nM Arf, 5 μM GTPγS; for Km for PLD in the presence of inhibitor: Km without inhibitor 33.3 μM PC; for Vmax in the presence of inhibitor: Vmax without inhibitor 166.7 pmol/h, Lineweaver-Burk; for IC50: FIG. 2, read-out: Half-maximal inhibition of PLD activity
T1 construct: The activity of partially purified PLD from rat brain membrane was assayed; tissue Dr. Sue Goo Rhee (National Institutes of Health, Bethesda, Md.); host or cells: rat brain membranes
T1 sequence (P70496 1-1074): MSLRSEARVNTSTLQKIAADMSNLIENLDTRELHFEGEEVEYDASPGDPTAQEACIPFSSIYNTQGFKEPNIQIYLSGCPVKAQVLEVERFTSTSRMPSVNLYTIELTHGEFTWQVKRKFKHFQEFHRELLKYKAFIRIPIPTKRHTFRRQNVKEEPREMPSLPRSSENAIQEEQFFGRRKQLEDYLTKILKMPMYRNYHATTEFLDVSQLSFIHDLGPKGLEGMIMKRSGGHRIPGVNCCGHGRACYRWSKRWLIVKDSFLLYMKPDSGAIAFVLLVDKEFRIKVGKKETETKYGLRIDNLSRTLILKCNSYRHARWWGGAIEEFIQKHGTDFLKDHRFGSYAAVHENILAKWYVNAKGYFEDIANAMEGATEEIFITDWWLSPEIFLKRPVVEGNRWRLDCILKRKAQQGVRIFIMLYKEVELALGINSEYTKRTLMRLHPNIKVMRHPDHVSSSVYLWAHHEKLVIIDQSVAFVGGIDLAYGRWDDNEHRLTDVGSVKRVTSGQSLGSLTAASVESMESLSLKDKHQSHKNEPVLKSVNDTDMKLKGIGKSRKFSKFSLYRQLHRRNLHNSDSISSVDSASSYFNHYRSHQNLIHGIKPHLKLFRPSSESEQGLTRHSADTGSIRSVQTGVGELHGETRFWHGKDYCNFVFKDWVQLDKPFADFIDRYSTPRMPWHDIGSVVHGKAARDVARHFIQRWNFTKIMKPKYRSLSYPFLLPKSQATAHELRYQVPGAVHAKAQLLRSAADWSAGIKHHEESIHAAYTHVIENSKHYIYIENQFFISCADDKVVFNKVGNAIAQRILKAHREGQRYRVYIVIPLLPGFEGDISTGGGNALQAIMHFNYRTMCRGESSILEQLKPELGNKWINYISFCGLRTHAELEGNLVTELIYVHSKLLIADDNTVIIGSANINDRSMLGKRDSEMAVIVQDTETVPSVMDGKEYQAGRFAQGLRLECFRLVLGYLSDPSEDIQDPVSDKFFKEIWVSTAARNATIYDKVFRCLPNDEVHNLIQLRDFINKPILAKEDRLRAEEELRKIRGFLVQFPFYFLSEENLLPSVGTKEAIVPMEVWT

[2] = test system: human prostate cancer cell line PC-3; assay: PC-3 cell growth (cell viability after trypan blue staining); format: cell-based
Procedure: The influence of lysophospholipids on the inhibition of cancer cell growth was investigated. For this purpose, human prostate cancer cell line PC-3 was used. PC-3 cells were cultured using standard RPMI 1640 medium supplemented with 5% fetal bovine serum (FBS). The composition of RPMI 1640 included inorganic salts, glucose, amino acids and vitamins (see Rajesh, D., et al., Molecular Pharmacology 56:515-525 (1999) for details). PC-3 cells were cultured in the presence of various presence of various phospholipids. At appropriate times after treatment the cells were treated by trypsin EDTA treatment, washed twice in an ice cold buffer and analyzed for cell viability after staining with trypan blue (Sawicki, W., et al., Stain Technology 42:143 (1967)).

[3] = test system: PLD activity in PC-3 cells; settings: cited from earlier work
PLD from plant tissues = settings: cited from earlier work
rat brain PLD = biological target: T2, rat brain PLD (Rattus norvegicus, UniProt P70496); assay: Binding of lysophospholipids to PLD (vesicle precipitation assay followed by immunoblot); settings: 1 mM vesicles, 1,500 fold excess BSA
T2 construct: 200 ng of rat brain PLD; tissue Dr. Sue Goo Rhee (National Institutes of Health, Bethesda, Md.); host or cells: rat brain membranes
T2 sequence (P70496 1-1074): T1 sequence (P70496 1-1074)
Procedure: The binding ability of lysophospholipids to PLD was estimated by precipitation assay followed by immunoblot. The final assay volume was 0.3 ml containing 50 mM Hepes (pH 7.5), 3 mM EGTA, 80 mM KCl, 2.5 MM MgCl2, 2 mM CaCl2, 1% ethanol, 5 μM GTPγS, 33 nM myristoylated Arf, 300 μg of BSA, 200 ng of rat brain PLD and 1 mM lysophospholipid or phospholipid vesicles. After incubation at 37° C. for 10 minutes, the mixture was cooled in ice-water for 30 minutes and centrifuged at 17,000×g for 30 minutes at 4° C. The precipitant of lysophospholipid vesicles containing bound PLD in the excess of BSA (1,500 fold than rat PLD) was resuspended in 20 μL PBS (pH 7.5). The bound PLD was separated by 8% SDS-PAGE without reducing agent (2-mercaptoethanol) in sample loading buffer and transferred onto immunoblot membrane. The membrane was blotted with rabbit-PLD antibodies that detect both PLD 1 and PLD 2 isozymes. The PLD-antibody complex was visualized by staining alkaline phosphatase conjugated to a second antibody (Bio-Rad, Hercules, Calif.).

Molecule: O[C@H]1[C@H](O)[C@@H](O)[C@H](O)[C@@H](O)[C@H]1O [inositol, reference compound]
- inhibition of PLD activity by headgroups ([1]; 10 μM): None of the headgroups such as choline, glycerol, inositol, or serine significantly inhibited PLD activity

- inhibition at 20 µM ([1]; 20 μM): 10%
- inhibition at 40 µM ([1]; 40 μM): 20%
Molecule: CCCCCCCC/C=C\CCCCCCCC(=O)O [oleate, reference compound]

Molecule: C=C(C)[C@@H]1CC=C(CO)CC1 [perillyl alcohol, reference compound]
- inhibition of PC-3 cell growth compared to LPI (FIG. 10) ([2]; 1 mM): not as strong inhibitor of PC-3 cell growth as compared to LPI

Molecule: N[C@@H](CO)C(=O)O [serine, reference compound]
- inhibition of PLD activity by headgroups ([1]; 10 μM): None of the headgroups such as choline, glycerol, inositol, or serine significantly inhibited PLD activity

- stimulatory effect on PLD activity ([1]; 10 μM): 6-9%
Molecule: Triton X-100 [reference compound]

Molecule: eLPE [reference compound]
- effect on rat brain PLD activity ([1]; 10 μM (FIG. 1)): not inhibited but rather slightly stimulated

- stimulation of rat brain PLD ([1]; 10 and 20 μM, assay contains Arf and PIP2): not stimulated
Molecule: lysophosphatidic acid [reference compound]
- effect on PLD activity in PC-3 cells [3]: stimulate PLD activity

- PLD activity, % of the control [1]: 61.0%
Molecule: lysophosphatidylcholine [LPC, reference compound]
- retardation of PC-3 cell growth (FIG. 8) [2]: able to retard the growth of PC-3 cells
- inhibition of activity of PLD from plant tissues (PLD from plant tissues): not significantly inhibited

- PLD activity, % of the control [1]: 24.9%
Molecule: lysophosphatidylglycerol [LPG]
- retardation of PC-3 cell growth (FIG. 8) [2]: able to retard the growth of PC-3 cells
- inhibition of activity of PLD from plant tissues (PLD from plant tissues): not significantly inhibited

- inhibition of PLD activity ([1]; 160 nM): 19%
- inhibition of PLD activity ([1]; 640 nM): 27%
- PLD activity, % of the control, in the absence of Arf ([1]; 4 μM inhibitor, no Arf (no Arf alone: 72%)): 33%
- Km for PLD in the presence of inhibitor ([1]; 4 μM inhibitor): did not change
- Vmax in the presence of inhibitor ([1]; 4 μM inhibitor): 76.9 pmol/h
- PLD activity, % of the control [1]: 23.3%
- change of PLD activity by addition of myristoylated Arf in presence of inhibitor ([1]; 15 μM inhibitor): not significantly changed
- IC50 [1]: 3 µM
- PLD inhibition when PIP2 concentration tripled ([1]; LPI 4 μM, LPS 12 μM, PIP2 4.8 vs 14.4 μM): not significantly changed
- co-precipitation of PLD proteins with lipid vesicles (rat brain PLD): co-precipitated
Molecule: lysophosphatidylinositol [LPI]
- inhibition of PC-3 cell growth, lyso form vs phospholipid and inositol (FIG. 7) [2]: able to inhibit the PC-3 cell growth
- retardation of PC-3 cell growth (FIG. 8) [2]: able to retard the growth of PC-3 cells
- inhibition of PC-3 cell growth, concentration dependence (FIG. 9) ([2]; 100 μM): very inhibitory

Molecule: lysophosphatidylserine [LPS]
- Km for PLD in the presence of inhibitor ([1]; 4 μM inhibitor): did not change
- Vmax in the presence of inhibitor ([1]; 4 μM inhibitor): 121.5 pmol/h
- PLD activity, % of the control [1]: 30.3%
- IC50 [1]: 6 µM
- inhibition of activity of PLD from plant tissues (PLD from plant tissues): not significantly inhibited
